The target of one assay is T1, NMB Receptor (Rattus norvegicus, UniProt P24053).
T1 construct: a full length NMB-preferring bombesin receptor clone generated from rat esophagus; expressed in transfected cells; host or cells: BALB 3T3 cells
T1 sequence (P24053 1-390): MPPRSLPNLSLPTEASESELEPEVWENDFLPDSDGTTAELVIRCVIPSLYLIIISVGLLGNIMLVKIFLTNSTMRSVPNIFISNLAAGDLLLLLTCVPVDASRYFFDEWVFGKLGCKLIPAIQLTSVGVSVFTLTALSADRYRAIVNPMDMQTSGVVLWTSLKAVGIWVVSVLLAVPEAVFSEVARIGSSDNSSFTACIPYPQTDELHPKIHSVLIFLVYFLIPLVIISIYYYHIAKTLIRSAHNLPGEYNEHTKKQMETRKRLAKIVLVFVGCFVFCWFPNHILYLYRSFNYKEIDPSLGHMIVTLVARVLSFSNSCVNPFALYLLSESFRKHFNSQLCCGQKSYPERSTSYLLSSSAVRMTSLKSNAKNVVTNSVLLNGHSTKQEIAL
The experiment in a line: [3H]inositol phosphates (IP) in NMB-R transfected cells. Type of assay: cell-based. The settings on record: for effect on NMB-stimulated increase in [^3H]IP: NMB-R transfected cells, 3 nM NMB, peptide 10 µM; for NMB-R Transfected Cells [^3H]IP Alone (10 µ M): analog 10 µM alone, no-additive control 13 ± 3; for NMB-R Transfected Cells [^3H]IP Plus NMB (3 nM): analog 10 µM plus NMB 3 nM, NMB without analog 186 ± 58. On the procedure:
As described previously [Wada, E., et al. Neuron 6:421 (1991)], BALB 3T3 cells expressing a stably transfected rat NMB receptor (NMB-R transfected cells) were obtained using calcium phosphate precipitation of a full length NMB-preferring bombesin receptor clone generated from rat esophagus and subcloned into a modified version of the pCD2 plasmid. Cells were passaged every 3-4 days at confluence, using 0.1% trypsin in 1 mM EDTA. Rat glioblastoma C-6 tumor cells were maintained similarly and were passaged weekly at confluence. Both cell lines were cultured at 37°C in a 5% CO2 atmosphere. Rat AR 42J pancreatic acinar cells were cultured in Dulbecco's modified Eagle's medium (DMEM) without antibiotics and supplemented with 10% (vol/vol) fetal calf serum. The incubation atmosphere consisted of 10% CO2-90% humidified air at 37°C.
(§1) Total phosphoinositides in C-6 cells and in NMB-R transfected cells were determined as described previously, with minor modifications [Benya, R. V. et al. Mol. Pharmacol. 42:1058 (1992); and Wang, L-H. et al. Biochem. J. 286:641 (1992)]. Cells were grown to confluence in 24-well plates and then loaded with 100 µCi/ml myo-[2-^3H]inositol in Dulbecco's modified essential medium with 2% fetal bovine serum at 37°C for 48 hrs. Cells were washed and incubated in phosphoinositide buffer (standard buffer additionally containing 10 mM LiCl, 20 mM HEPES, 2 mM CaCl2, 2% BSA, and 1.2 mM MgSO4) for 15 min and then for 60 min at 37°C with agonists at various concentrations or with 3 nM NMB (a half-maximal effective concentration) and possible antagonists at different concentrations. Reactions were halted using ice-cold 1% HCl in methanol, and the inositol phosphates (IP) were isolated as described previously [Bologna, M. et al. Cancer 63:1714 (1989); and Endo, T. et al. J. Endocrinol. 131:313 (1991)]. Briefly, after loading of the anion exchange column, free [^3H]glycerophosphorylinositol was removed by washing with 5 mM disodium tetraborate in 60 mM sodium formate. Total [^3H]inositol phosphates were then eluted using 100 mM formic acid in 1.0 M ammonium formate as described previously [Benya, R. V. et al. Mol. Pharmacol. 42:1058 (1992); and Wang, L-H. et al. Biochem. J. 286:641 (1992)].

Another assay addresses T2, GRP Receptor (Rattus norvegicus, UniProt P52500).
T2 construct: from tissue; host or cells: dispersed pancreatic acini
Nature of the assay: Amylase release from rat pancreatic acini. Type of assay: cell-based. The settings on record: for Rat Pancreatic Acini Amylase Release Alone (10µM): analog 10 µM alone, no-additive control 4 ± 1; for Rat Pancreatic Acini Amylase Release Plus Bn(0.3 nM): analog 10 µM plus Bn 0.3 nM, Bn without analog 15 ± 1.

Assay [1] has as its target T3, NMB receptors on rat olfactory bulb membranes (Rattus norvegicus, UniProt P24053).
T3 construct: Membranes were prepared from rat olfactory bulb (NMB membrane receptor assay); from tissue; host or cells: rat olfactory bulb membranes
T3 sequence (P24053 1-390): T1 sequence (P24053 1-390)
The experiment in a line: NMB membrane receptor assay (rat olfactory bulb membranes). The class given is binding. The settings on record: rat olfactory bulb versus rat forebrain membranes (Table 4).

The target of another assay is T4, rat NMB receptor (Rattus norvegicus, UniProt P24053).
T4 construct: a full length NMB-preferring bombesin receptor clone generated from rat esophagus; expressed in transfected cells; host or cells: BALB 3T3 cells
T4 sequence (P24053 1-390): T1 sequence (P24053 1-390)
The experiment in a line: Binding of 125I-[D-Tyr0]NMB to NMB-R transfected BALB 3T3 cells. The settings on record: for fold by which cyclo SS-octa was more potent than the analog: inhibition of ^125I-[Tyr^0]NMB binding to NMB-R transfected cells; for decrease in NMB receptor affinity compared with #1: structure-function comparison of Table 1 values. On the procedure:
Cells were passaged every 3-4 days at confluence, using 0.1% trypsin in 1 mM EDTA. Rat glioblastoma C-6 tumor cells were maintained similarly and were passaged weekly at confluence. Both cell lines were cultured at 37°C in a 5% CO2 atmosphere. Rat AR 42J pancreatic acinar cells were cultured in Dulbecco's modified Eagle's medium (DMEM) without antibiotics and supplemented with 10% (vol/vol) fetal calf serum. The incubation atmosphere consisted of 10% CO2-90% humidified air at 37°C.

Assay [2] has as its system endothelin-1-simulated increases in [^3H]IP. Nature of the assay: Endothelin-1-stimulated [3H]IP in C-6 glioblastoma cells. The class given is cell-based, rat. On the procedure:
as §1

The target in assay [3] is T5, NMB receptors on C-6 glioblastoma cells (Rattus norvegicus, UniProt P24053).
T5 construct: endogenous in cells; host or cells: rat glioblastoma C-6 cells
T5 sequence (P24053 1-390): T1 sequence (P24053 1-390)
The experiment in a line: NMB-stimulated [3H]IP in C-6 glioblastoma cells. Type of assay: cell-based. As to the method:
as §1, with “for 60 min at 37°C with agonists at various concentrations or with 3 nM NMB (a half-maximal effective concentration) and possible antagonists at different concentrations.” left out

Where a SMILES comes first, the peptide text is derived from it. Bridges are numbered along the chain shown (N, C = ends). Where no end group is shown, it is not given here. [ ]: non-standard residue; d: D form. 2Nal = N[C@@H](Cc1ccc2ccccc2c1)C(=O)O; d2Nal = N[C@H](Cc1ccc2ccccc2c1)C(=O)O; Lys(iPr) = CC(C)NCCCC[C@H](N)C(=O)O

T2 sequence (P52500 whole entry): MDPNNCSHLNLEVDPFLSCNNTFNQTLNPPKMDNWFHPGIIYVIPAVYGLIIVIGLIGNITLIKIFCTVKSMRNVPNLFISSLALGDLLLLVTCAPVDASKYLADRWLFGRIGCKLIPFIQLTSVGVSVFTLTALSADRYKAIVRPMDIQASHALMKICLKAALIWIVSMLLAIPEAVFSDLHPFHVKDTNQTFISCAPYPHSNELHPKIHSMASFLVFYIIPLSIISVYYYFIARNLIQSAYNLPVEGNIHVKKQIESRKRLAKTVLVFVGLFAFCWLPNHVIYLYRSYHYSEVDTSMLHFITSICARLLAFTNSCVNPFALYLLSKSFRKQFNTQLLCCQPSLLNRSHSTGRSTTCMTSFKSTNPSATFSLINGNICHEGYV

Take `CC(C)[C@@H]1NC(=O)[C@H](CCCCN)NC(=O)[C@@H](Cc2c[nH]c3ccccc23)NC(=O)[C@H](Cc2ccc(O)cc2)NC(=O)[C@@H](NC(=O)[C@H](N)Cc2ccc3ccccc3c2)CSSC[C@H](C(=O)N[C@@H](Cc2ccc3ccccc3c2)C(N)=O)NC1=O` [Analog #11, [D-Cys^7]-cyclo SS-octa] (H-[d2Nal]CY[dW]KV[dC][2Nal]-NH2; disulfide 2-7; N-terminus assumed): at NMB Receptor, the “effect on NMB-stimulated increase in [^3H]IP” value is on record as “completely inhibited”, the “NMB-R Transfected Cells [^3H]IP Alone (10 µ M)” value was 10 ± 1 dpm x 10^3 and the “NMB-R Transfected Cells [^3H]IP Plus NMB (3 nM)” value (“NMB-R Transfected Cells … (3 nM)” for short) came to 7 ± 4 dpm x 10^3. Moreover, on GRP Receptor, the “Rat Pancreatic Acini Amylase Release Alone (10µM)” value is 2 ± 1 % total and the “Rat Pancreatic Acini Amylase Release Plus Bn(0.3 nM)” value is on record as 14 ± 1 % total. In addition, in assay [1], the “fold greater affinity for NMB receptors than mu opioid receptors” value is on record as over 50 fold. On rat NMB receptor, the “fold by which cyclo SS-octa was more potent than the analog” value worked out at 6 fold and the “decrease in NMB receptor affinity compared with #1” value (shortened to “decrease in NMB receptor affinity”) was 5 fold.

On to `CC(C)[C@@H]1NC(=O)[C@H](CCCCN)NC(=O)[C@@H](Cc2ccc3ccccc3c2)NC(=O)[C@H](Cc2ccc(O)cc2)NC(=O)[C@@H](NC(=O)[C@H](N)Cc2ccc3ccccc3c2)CSSC[C@@H](C(=O)N[C@@H](Cc2ccc3ccccc3c2)C(N)=O)NC1=O` [Analog #17, [D-Nal^4]-cyclo SS-octa] (H-[d2Nal]CY[d2Nal]KVC[2Nal]-NH2; disulfide 2-7; N-terminus assumed), for which, on NMB Receptor, the “effect on NMB-stimulated increase in [^3H]IP” value is recorded as “completely inhibited”, the “NMB-R Transfected Cells [^3H]IP Alone (10 µ M)” value is recorded as 12 ± 4 dpm x 10^3 and the “NMB-R Transfected Cells … (3 nM)” value is listed as 15 ± 2 dpm x 10^3. In addition, on GRP Receptor, the “Rat Pancreatic Acini Amylase Release Alone (10µM)” value is 4 ± 2 % total and the “Rat Pancreatic Acini Amylase Release Plus Bn(0.3 nM)” value is 19 ± 1 % total. The “fold greater affinity for the NMB than the GRP receptors” value on rat NMB receptor (NMB-R transfected cells versus GRP receptors on rat pancreatic acini) is over 100 fold. Moreover, at rat NMB receptor, the “fold by which cyclo SS-octa was more potent than the analog” value turned out to be 2 fold and the “decrease in NMB receptor affinity” value was “almost no effect on affinity”.

Take “endothelin 1 (CSCSSLMDKECVYFCHLDIIW; disulfide 1-15, 3-11; ends not checked; UniProt P05305 53-73, looked up) [ET-1, agonist from Peninsula Laboratories, reference compound]”: the “[^3H]IP, ET-1 (0.1 nM) Alone” value in assay [2] (C-6 glioblastoma cells, agonist without analog, basal 7.2±1.0) is listed as 11.0±2.1 dpm x 10^3.

As to `CC(C)NCCCC[C@@H]1NC(=O)[C@@H](Cc2c[nH]c3ccccc23)NC(=O)[C@H](Cc2ccc(O)cc2)NC(=O)[C@@H](NC(=O)[C@H](N)Cc2ccccc2)CSSC[C@@H](C(=O)N[C@@H](Cc2ccc3ccccc3c2)C(N)=O)NC(=O)[C@H]([C@@H](C)O)NC1=O` [Analog #15, [D-Phe^1, Lys(iPr)^5, Thr^6]-cyclo SS-octa] (H-[dF]CY[dW][Lys(iPr)]TC[2Nal]-NH2; disulfide 2-7; N-terminus assumed), on NMB Receptor, the “NMB-R Transfected Cells [^3H]IP Alone (10 µ M)” value was 11 ± 1 dpm x 10^3 and the “NMB-R Transfected Cells … (3 nM)” value was found to be 67 ± 7 dpm x 10^3. Besides, at GRP Receptor, the “Rat Pancreatic Acini Amylase Release Alone (10µM)” value was 4 ± 2 % total and the “Rat Pancreatic Acini Amylase Release Plus Bn(0.3 nM)” value came to 13 ± 2 % total. At rat NMB receptor, the “fold by which cyclo SS-octa was more potent than the analog” value came to 9 fold.

In the case of `C[C@@H](O)[C@H](NC(=O)[C@@H]1CSSC[C@H](NC(=O)[C@H](N)Cc2ccc3ccccc3c2)C(=O)N[C@@H](Cc2ccc(O)cc2)C(=O)N[C@H](Cc2c[nH]c3ccccc23)C(=O)N[C@@H](CCCCN)C(=O)N[C@@H](Cc2ccc3ccccc3c2)C(=O)N1)C(N)=O` [Analog #2, [Nal^6,Thr^8]-cyclo SS-octa], at NMB Receptor, the “NMB-R Transfected Cells [^3H]IP Alone (10 µ M)” value came to 11 ± 2 dpm x 10^3 and the “NMB-R Transfected Cells … (3 nM)” value came out at 39 ± 7 dpm x 10^3. Further, at GRP Receptor, the “Rat Pancreatic Acini Amylase Release Alone (10µM)” value was 5 ± 1 % total and the “Rat Pancreatic Acini Amylase Release Plus Bn(0.3 nM)” value amounted to 13 ± 1 % total. The “[^3H]IP, Peptide Added ET-1 (0.1 nM)” value in assay [2] (C-6 glioblastoma cells, analog 10 µM plus ET-1 0.1 nM) is on record as 11.2±1.9 dpm x 10^3. The “effect on endothelin-1-simulated increases in [^3H]IP in C-6 cells” value in assay [2] (Table 3) was “had no effect”. The “[^3H]IP, Peptide Added NMB (10 nM)” value in assay [3] (C-6 glioblastoma cells, analog 10 µM plus NMB 10 nM) came out at 14.3 ± 4.2 dpm x 10^3. Also, the “[^3H]IP, Peptide Added None” value in assay [3] (C-6 glioblastoma cells, analog 10 µM, no agonist, control 7.2±1.0) came to 7.3±1.2 dpm x 10^3. The “effect on NMB-stimulated increases in [^3H]IP in C-6 glioblastoma cells” value in assay [3] (Table 3) is reported as “inhibited”. Also, at rat NMB receptor, the “fold by which cyclo SS-octa was more potent than the analog” value was 4 fold and the “decrease in NMB receptor affinity” value was found to be 4 fold.

With `CC(C)[C@@H]1NC(=O)[C@H](CCCCN)NC(=O)[C@@H](Cc2c[nH]c3ccccc23)NC(=O)[C@H](Cc2ccc(O)cc2)NC(=O)[C@@H](NC(=O)[C@H](N)Cc2ccccc2)CSSC[C@@H](C(=O)N[C@@H](Cc2ccc3ccccc3c2)C(N)=O)NC1=O` [Analog #4, [D-Phe^1]-cyclo SS-octa] (H-[dF]CY[dW]KVC[2Nal]-NH2; disulfide 2-7; N-terminus assumed), at NMB Receptor, the “NMB-R Transfected Cells [^3H]IP Alone (10 µ M)” value was determined as 13 ± 1 dpm x 10^3 and the “NMB-R Transfected Cells … (3 nM)” value is 33 ± 4 dpm x 10^3. Also, on GRP Receptor, the “Rat Pancreatic Acini Amylase Release Alone (10µM)” value is listed as 4 ± 2 % total and the “Rat Pancreatic Acini Amylase Release Plus Bn(0.3 nM)” value is 14 ± 1 % total. Besides, the “fold by which cyclo SS-octa was more potent than the analog” value on rat NMB receptor turned out to be 4 fold.

The values are drawn from EP0606463B1, “NEUROMEDIN B RECEPTOR ANTAGONISTS” (The Administrators of The Tulane Educational Fund, priority 1992, dated 1994).
